Data on 4 compounds can be found in patent publication US11345762B2, “Method for preparing liquid medium composition, and preparation device and kit therefor” (NISSAN CHEMICAL INDUSTRIES, LTD., priority 2015, dated 2022).

Assay [1] deals with Human pancreatic cancer cell line Panc02,03. As to the kind of experiment: Proliferation action on Panc02,03 cell stimulated by each growth factor (ATP, CellTiter-Glo). Format: cell-based.
For assay [2], the system named is Human lung cancer cell line A549. Nature of the assay: A549 cell proliferation suppressive test with anticancer agents in low adhesion plate (ATP, CellTiter-Glo). Format: cell-based. The method, then: Deacylated gellan gum (KELCOGEL CG-LA, manufactured by Sansho Co., Ltd.) was suspended in ultra pure water (Milli-Q water) to 0.3% (w/v) or 0.75% (w/v), dissolved by stirring with heating at 90° C., and this aqueous solution was autoclave sterilized at 121° C. for 20 min. Using 0.3% solution, a medium composition was prepared by adding deacylated gellan gum (final concentration 0.015% (w/v)) to DMEM medium (manufactured by WAKO) containing 10% (v/v) fetal bovine serum. Fetal bovine serum was added at 10% (v/v) to a medium composition prepared in Example 7.
Human lung cancer cell line A549 (manufactured by DS PHARMA BIOMEDICAL) was seeded in the above-mentioned medium composition added with deacylated gellan gum (conventional method) or the medium composition of Example 7 at 14800 cells/mL, and dispensed to the wells of a 96 well flat bottom ultra-low adhesive surface microplate (Corning Incorporated manufactured by, #3474) at 135 μL per […]. As a negative control, A549 cells were suspended in the above-mentioned medium free of deacylated gellan gum and dispensed. Each plate was cultured in a static state in a CO2 incubator (37° C., 5% CO2). On day 1 of culture, medium compositions (conventional method and the production method of the present invention) containing each anticancer agent at 10-fold concentration and deacylated gellan gum (final concentration 0.015% (w/v)), and a medium composition containing each anticancer agent alone at 10-fold concentration (non-addition method), 15 μL each, was added to a final concentration of 0.001 to 30 μM, and culture was continued for 7 days. As the anticancer agent, Trametinib (manufactured by Santa Cruz, MEK inhibitor) and MK-2206 (manufactured by Santa Cruz, Akt inhibitor) were used. ATP reagent (150 μL, CellTiter-Glo™ Luminescent Cell Viability Assay, manufactured by Promega) was added to the culture media on days 5 and 8 and suspended therein, stood for about 10 min at room temperature, and the luminescence intensity (RLU value) was measured by FlexStation3 (manufactured by Molecular Devices), from which the luminescence with the medium alone was subtracted to measure the number of viable cells.
On the technique in general: ATP-based viability assays read luminescence as a measure of living cells.

[3] abbreviates: A549, day 4 of static culture, 0.001 μM, conventional method.
The mark [4] stands for this setting: A549, day 4 of static culture, 0.001 μM, non-addition method.
[5] abbreviates: A549, day 4 of static culture, 0.001 μM, production method of present invention.
Setting [6] is: A549, day 4 of static culture, 0.01 μM, conventional method.
Setting [7] is: A549, day 4 of static culture, 0.01 μM, non-addition method.
Where [8] appears, read: A549, day 4 of static culture, 0.01 μM, production method of present invention.
The mark [9] stands for this setting: A549, day 4 of static culture, 0.03 μM, conventional method.
Where [10] appears, read: A549, day 4 of static culture, 0.03 μM, non-addition method.
[11] abbreviates: A549, day 4 of static culture, 0.03 μM, production method of present invention.
Setting [12] is: A549, day 7 of static culture, 0.001 μM, conventional method.
[13] abbreviates: A549, day 7 of static culture, 0.001 μM, non-addition method.
The mark [14] stands for this setting: A549, day 7 of static culture, 0.001 μM, production method of present invention.
Where [15] appears, read: A549, day 7 of static culture, 0.01 μM, conventional method.
Where [16] appears, read: A549, day 7 of static culture, 0.01 μM, non-addition method.
[17] abbreviates: A549, day 7 of static culture, 0.01 μM, production method of present invention.
The mark [18] stands for this setting: A549, day 7 of static culture, 0.03 μM, conventional method.
[19] abbreviates: A549, day 7 of static culture, 0.03 μM, non-addition method.
[20] abbreviates: A549, day 7 of static culture, 0.03 μM, production method of present invention.

“human IGF-1: growth factor, manufactured by PEPROTECH”: the “% control of RLU value (ATP measurement, luminescence intensity)” value (shortened to “% control of RLU value”) in assay [1] (Panc02,03, 10 ng/mL, medium composition of Example 13, on day 6 (head)) is listed as 100 % Control; in assay [1] (Panc02,03, 10 ng/mL, monolayer culture group, culture conditions on day 6 (head)), 101 % Control; in assay [1] (Panc02,03, 10 ng/mL, negative control group (medium free of deacylated gellan gum, low adhesion plate), on day 6 (head)), 119 % Control; in assay [1] (Panc02,03, 100 ng/mL, medium composition of Example 13, on day 6 (head)), 110 % Control; in assay [1] (Panc02,03, 100 ng/mL, monolayer culture group, culture conditions on day 6 (head)) it was 98 % Control; in assay [1] (Panc02,03, 100 ng/mL, negative control group (medium free of deacylated gellan gum, low adhesion plate), on day 6 (head)), 121 % Control.

As for `CC(=O)Nc1cccc(-n2c(=O)n(C3CC3)c(=O)c3c(Nc4ccc(I)cc4F)n(C)c(=O)c(C)c32)c1` [Trametinib], the “% control of RLU value” value in assay [2] (setting [3]) came out at 85 % Control; in assay [2] (setting [4]), 76 % Control; in assay [2] (setting [5]), 82 % Control; in assay [2] (A549, day 4 of static culture, 0.003 μM, conventional method), 65 % Control; in assay [2] (A549, day 4 of static culture, 0.003 μM, non-addition method) it was 57 % Control; in assay [2] (A549, day 4 of static culture, 0.003 μM, production method of present invention) it was 60 % Control. Besides, the “% control of RLU value” value in assay [2] (setting [6]) worked out at 61 % Control; in assay [2] (setting [7]), 65 % Control; in assay [2] (setting [8]) it was 57 % Control; in assay [2] (setting [9]), 40 % Control; in assay [2] (setting [10]) it was 46 % Control; in assay [2] (setting [11]) it was 41 % Control. Further, the “% control of RLU value” value in assay [2] (setting [12]) was 81 % Control; in assay [2] (setting [13]), 76 % Control; in assay [2] (setting [14]) it was 76 % Control; in assay [2] (A549, day 7 of static culture, 0.003 μM, conventional method), 52 % Control; in assay [2] (A549, day 7 of static culture, 0.003 μM, non-addition method), 48 % Control; in assay [2] (A549, day 7 of static culture, 0.003 μM, production method of present invention) it was 48 % Control. Further, the “% control of RLU value” value in assay [2] (setting [15]) is reported as 48 % Control; in assay [2] (setting [16]), 56 % Control; in assay [2] (setting [17]) it was 45 % Control; in assay [2] (setting [18]) it was 25 % Control; in assay [2] (setting [19]), 39 % Control; in assay [2] (setting [20]) it was 24 % Control.

In the case of `NC1(c2ccc(-c3nc4ccn5c(=O)[nH]nc5c4cc3-c3ccccc3)cc2)CCC1` [MK-2206], the “% control of RLU value” value in assay [2] (setting [9]) is given as 100 % Control; in assay [2] (setting [10]) it was 108 % Control; in assay [2] (setting [11]) it was 85 % Control; in assay [2] (A549, day 4 of static culture, 0.1 μM, conventional method), 91 % Control; in assay [2] (A549, day 4 of static culture, 0.1 μM, non-addition method) it was 99 % Control; in assay [2] (A549, day 4 of static culture, 0.1 μM, production method of present invention) it was 74 % Control. Besides, the “% control of RLU value” value in assay [2] (A549, day 4 of static culture, 0.3 μM, conventional method) came to 71 % Control; in assay [2] (A549, day 4 of static culture, 0.3 μM, non-addition method), 93 % Control; in assay [2] (A549, day 4 of static culture, 0.3 μM, production method of present invention), 60 % Control; in assay [2] (A549, day 4 of static culture, 1 μM, conventional method), 50 % Control; in assay [2] (A549, day 4 of static culture, 1 μM, non-addition method), 78 % Control; in assay [2] (A549, day 4 of static culture, 1 μM, production method of present invention), 43 % Control. Also, the “% control of RLU value” value in assay [2] (A549, day 4 of static culture, 3 μM, conventional method) is reported as 38 % Control; in assay [2] (A549, day 4 of static culture, 3 μM, non-addition method), 62 % Control; in assay [2] (A549, day 4 of static culture, 3 μM, production method of present invention) it was 33 % Control; in assay [2] (setting [18]), 92 % Control; in assay [2] (setting [19]) it was 124 % Control; in assay [2] (setting [20]) it was 80 % Control. For the same compound, the “% control of RLU value” value in assay [2] (A549, day 7 of static culture, 0.1 μM, conventional method) is 83 % Control; in assay [2] (A549, day 7 of static culture, 0.1 μM, non-addition method) it was 101 % Control; in assay [2] (A549, day 7 of static culture, 0.1 μM, production method of present invention), 69 % Control; in assay [2] (A549, day 7 of static culture, 0.3 μM, conventional method), 63 % Control; in assay [2] (A549, day 7 of static culture, 0.3 μM, non-addition method), 103 % Control; in assay [2] (A549, day 7 of static culture, 0.3 μM, production method of present invention), 54 % Control. The “% control of RLU value” value in assay [2] (A549, day 7 of static culture, 1 μM, conventional method) came out at 38 % Control; in assay [2] (A549, day 7 of static culture, 1 μM, non-addition method), 85 % Control; in assay [2] (A549, day 7 of static culture, 1 μM, production method of present invention), 34 % Control; in assay [2] (A549, day 7 of static culture, 3 μM, conventional method), 26 % Control; in assay [2] (A549, day 7 of static culture, 3 μM, non-addition method), 76 % Control; in assay [2] (A549, day 7 of static culture, 3 μM, production method of present invention) it was 21 % Control. For the same compound, the “efficacy on A549 cell proliferation in the medium composition of the present invention (in words)” value in assay [2] (A549, medium composition of the present invention) was “strong efficacy”.

On to `CC(=O)O[C@H]1C(=O)[C@@]2(C)[C@H]([C@H](OC(=O)c3ccccc3)[C@]3(O)C[C@H](OC(=O)[C@H](O)[C@@H](NC(=O)c4ccccc4)c4ccccc4)C(C)=C1C3(C)C)[C@]1(OC(C)=O)CO[C@@H]1C[C@@H]2O` [Paclitaxel], for which the “% control of RLU value” value in assay [2] (setting [3]) is reported as 98 % Control; in assay [2] (setting [4]), 112 % Control; in assay [2] (setting [5]) it was 91 % Control; in assay [2] (setting [6]), 31 % Control; in assay [2] (setting [7]) it was 57 % Control; in assay [2] (setting [8]) it was 32 % Control. Further, the “% control of RLU value” value is listed as 90 % Control in assay [2] (setting [12]); 116 % Control in assay [2] (setting [13]); 84 % Control in assay [2] (setting [14]); 12 % Control in assay [2] (setting [15]); 49 % Control in assay [2] (setting [16]); 12 % Control in assay [2] (setting [17]).
